We go through 16 molecules from patent US7563796B2, “Diphenylimidazopyrimidines as inhibitors of β-secretase” (Wyeth, priority 2005, dated 2009).

For data set [1], the target named is human BACE1 (Homo sapiens, UniProt P56817). Briefly: Fluorescent kinetic assay, BACE1 inhibition (substrate WABC-6 cleavage). Type of data set: biochemical. Particulars: for IC50: 10 nM enzyme, 25 μM substrate WABC-6, pH 4.5, room temperature; for inhibition at 25 µM: read-out: BACE1 % inhibition at 25 μM, at 25 μM inhibitor. As to the method: Evaluation of BACE-1 Binding Affinity of Test Compounds
1. Fluorescent Kinetic Assays
Dilution and mixing steps: total reaction volume: 100 μL
100 μM substrate dilution in 1X PBS was prepared, and
Fluorescence Readings: Readings at λex 320 nm and λem 420 nm are taken every 40 sec for 30 min at room temperature and the linear slope for substrate cleavage rate (vi) determined.

Where a name gives a salt, the structure may show the parent alone.

Chain of human BACE1 (P56817 46-501): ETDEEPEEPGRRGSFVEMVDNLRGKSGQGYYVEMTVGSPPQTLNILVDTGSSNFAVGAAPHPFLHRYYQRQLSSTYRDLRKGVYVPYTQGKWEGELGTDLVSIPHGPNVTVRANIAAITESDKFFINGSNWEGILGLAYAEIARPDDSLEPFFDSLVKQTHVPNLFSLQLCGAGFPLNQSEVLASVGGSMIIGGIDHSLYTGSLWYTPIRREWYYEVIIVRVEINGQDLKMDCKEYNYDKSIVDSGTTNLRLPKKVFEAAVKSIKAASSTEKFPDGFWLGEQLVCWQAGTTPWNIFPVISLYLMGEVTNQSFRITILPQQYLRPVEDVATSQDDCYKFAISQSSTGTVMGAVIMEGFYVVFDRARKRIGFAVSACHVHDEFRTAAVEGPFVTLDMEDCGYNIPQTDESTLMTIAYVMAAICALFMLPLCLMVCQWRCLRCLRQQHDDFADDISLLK

A word on the melting point: it is the temperature of the solid-liquid transition. In the case of `CCC(=O)Nc1cccc(C2(c3ccc(OC(F)(F)F)cc3)N=C(N)N3CCCN=C32)c1` (stereo not shown) (as salt: hydrochloride) [Example 16, N-{3-[6-Amino-8-(4-trifluoromethoxy-phenyl)-2,3,4,8-tetrahydroimidazo[1,5-a]pyrimidin-8-yl]-phenyl}-propionamide hydrochloride], the melting point was 148 to 150 °C.
The IC50 is the point on the concentration scale where inhibition reaches its midpoint. Molecule `CC(C)(C)c1ccc(C2(c3ccccc3)N=C(N)N3CCCN=C32)cc1` (stereo not shown) [Example 1, 8-(4-tert-Butylphenyl)-8-phenyl-2,3,4,8-tetrahydroimidazol[1,5-a]pyrimidin-6-amine] gave a melting point of 139 °C. In data set [1], this molecule gave a 50% inhibitory concentration (IC50) of 30 µM.
Molecule `NC1=NC(c2ccccc2)(c2cccc(Cc3ccccc3)c2)C2=NCCCN12` (stereo not shown) [Example 2, 8-(3-Benzylphenyl)-8-phenyl-2,3,4,8-tetrahydroimidazol[1,5-a]pyrimidin-6-amine] registered a melting point of 80 °C. In data set [1], this molecule showed an IC50 of 5.3 µM.
In turn, `NC1=NC(c2ccccc2)(c2cccc(Oc3ccc(F)cc3)c2)C2=NCCCN12` (stereo not shown) [Example 3, 8-[3-(4-Fluorophenoxy)phenyl]-8-phenyl-2,3,4,8-tetrahydroimidazo[1,5-a]pyrimidin-6-amine] came in with a melting point of 165 °C. Moreover, the concentration for half-maximal inhibition (IC50) in data set [1] worked out at 4.7 µM.
Regarding `COc1ccc(Cc2cccc(C3(c4ccccc4)N=C(N)N4CCCN=C43)c2)cc1` (stereo not shown) [Example 4, 8-[3-(4-Methoxybenzyl)phenyl]-8-phenyl-2,3,4,8-tetrahydroimidazo[1,5-a]pyrimidin-6-amine], the melting point is 132 °C. Besides, half-maximal inhibition in data set [1] (IC50) required 7.1 µM.
`NC1=NC(c2ccccc2)(c2cccc(Cc3ccc(F)cc3)c2)C2=NCCCN12` (stereo not shown) [Example 5, 8-[3-(4-Fluorobenzyl)phenyl]-8-phenyl-2,3,4,8-tetrahydroimidazo[1,5-a]pyrimidin-6-amine] returned a melting point of 152 °C. In data set [1], this molecule had an IC50 of 8.2 µM.
A word on the inhibition: it is the drop in the measured response relative to a control, in per cent. As to `NC1=NC(c2ccccc2)(c2cccc(C(F)(F)F)c2)C2=NCCCN12` (stereo not shown) [Example 6, 8-Phenyl-8-[3-(trifluoromethyl)phenyl]-2,3,4,8-tetrahydroimidazo[1,5-a]pyrimidin-6-amine], in data set [1], the inhibition at 25 µM is 48%.
In the case of `COc1cccc(C2(c3ccccc3)N=C(N)N3CCCN=C32)c1` (stereo not shown) [Example 7, 8-(3-Methoxyphenyl)-8-phenyl-2,3,4,8-tetrahydroimidazo[1,5-a]pyrimidin-6-amine], the inhibition at 25 µM in data set [1] amounted to 49%.
In the case of `CCCOc1cccc(C2(c3ccc(OC)c(C)c3)N=C(N)N3CCN=C32)c1` (stereo not shown) [Example 8, 7-(4-Methoxy-3-methylphenyl)-7-(3-propoxyphenyl)-2,7-dihydro-3H-imidazo[1.5-a]imidazol-5-amine], the IC50 in data set [1] turned out to be 0.4 µM.
`CCCOc1cccc(C2(c3ccc(OC)c(C)c3)N=C(N)N3CCCN=C32)c1` (stereo not shown) [Example 9, 8-(4-Methoxy-3-methylphenyl)-8-(3-propoxyphenyl)-2,3,4,8-tetrahydroimidazo[1,5-a]pyrimidin-6-amine] returned an IC50 in data set [1] of 0.3 µM.
As for `CCCOc1cccc(C2(c3ccc(OC)c(C)c3)N=C(N)N3CC(C)(C)CN=C32)c1` (stereo not shown) [Example 10, 8-(4-Methoxy-3-methylphenyl)-3,3-dimethyl-8-(3-propoxyphenyl)-2,3,4,8-tetrahydroimidazo[1,5-a]pyrimidin-6-amine], the concentration for half-maximal inhibition (IC50) in data set [1] is 1.1 µM.
`NC1=NC(c2ccc(OC(F)(F)F)cc2)(c2cccc(CCC3CC3)c2)C2=NCCCN12` (stereo not shown) [Example 12, 8-[3-(2-Cyclopropyl-ethyl)-phenyl]-8-(4-trifluoromethoxy-phenyl)-2,3,4,8-tetrahydro-imidazo[1,5-a]pyrimidin-6-ylamine] came in with a melting point of 65 to 77 °C. This molecule also returned an IC50 in data set [1] of 0.21 µM.
In turn, `C=CCc1cccc(C2(c3ccc(OC(F)(F)F)cc3)N=C(N)N3CCCN=C32)c1` (stereo not shown) [Example 13, 8-(3-Allylphenyl)-8-(4-trifluoromethoxyphenyl)-2,3,4,8-tetrahydro-imidazo[1,5-a]pyrimidin-6-ylamine] showed a melting point of 89 to 111 °C. The inhibition at 5 µM in data set [1] (read-out: BACE1 % inhibition at 5 μM, at 5 μM inhibitor) amounted to 53%.
In the case of `CCCc1cccc(C2(c3ccc(OC(F)(F)F)cc3)N=C(N)N3CCCN=C32)c1` (stereo not shown) [Example 14, 8-(3-Propyl-phenyl)-8-(4-trifluoromethoxy-phenyl)-2,3,4,8-tetrahydro-imidazo[1,5-a]pyrimidin-6-ylamine], the melting point lay in the range of 75 to 79 °C. This molecule also displayed a concentration for half-maximal inhibition (IC50) in data set [1] of 1.43 µM.
In the case of `CCNC(=O)c1cccc(C2(c3ccc(OC(F)(F)F)cc3)N=C(N)N3CCCN=C32)c1` (stereo not shown) [Example 15, 3-[6-Amino-8-(4-trifluoromethoxy-phenyl)-2,3,4,8-tetrahydroimidazo[1,5-a]pyrimidin-8-yl]-N-ethyl-benzamide], the melting point lay in the range of 129 to 136 °C. The inhibition at 0.5 µM in data set [1] (read-out: BACE1 % inhibition at 0.5 μM, at 0.5 μM inhibitor) is 40%.
`CCC(=O)Nc1cccc(C2(c3ccc(OC(F)(F)F)cc3)N=C(N)N3CCCN=C32)c1` (stereo not shown) [Example 16, N-{3-[6-Amino-8-(4-trifluoromethoxy-phenyl)-2,3,4,8-tetrahydroimidazo[1,5-a]pyrimidin-8-yl]-phenyl}-propionamide hydrochloride]: the inhibition at […] in data set [1] (read-out: BACE1 % inhibition at […], at 2.5 μM inhibitor) is 43%.
